Source: US9193695B2, “1, 2, 4-triazolone derivative and use thereof as an antagonist on the arginine-vasopressin 1B receptor” (TAISHO PHARMACEUTICAL CO., LTD., priority 2010, dated 2015)
Where a name gives a salt, the structure may show the parent alone.

Tests used:
Human V1b receptor [1] = target: T1, Human V1b receptor (Homo sapiens, UniProt P47901); test: Measurement of V1b receptor antagonistic activity (AVP-induced fluorescence, Fluo-4, FDSS); assay type: cell-based; set-up: expressed in transfected cells
T1 sequence (P47901 1-424): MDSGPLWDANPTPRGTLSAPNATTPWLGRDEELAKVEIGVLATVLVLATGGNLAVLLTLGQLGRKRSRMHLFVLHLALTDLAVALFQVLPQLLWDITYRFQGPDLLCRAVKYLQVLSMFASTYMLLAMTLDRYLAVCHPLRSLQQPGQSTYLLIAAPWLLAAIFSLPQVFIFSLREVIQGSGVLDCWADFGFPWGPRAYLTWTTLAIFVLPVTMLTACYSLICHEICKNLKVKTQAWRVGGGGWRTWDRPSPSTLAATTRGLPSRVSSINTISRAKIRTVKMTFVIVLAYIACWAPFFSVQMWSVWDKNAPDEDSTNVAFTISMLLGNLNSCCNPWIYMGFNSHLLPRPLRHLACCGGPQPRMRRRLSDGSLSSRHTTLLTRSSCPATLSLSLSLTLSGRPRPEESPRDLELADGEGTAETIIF
Method: Measurement of V1b Receptor Antagonistic Activity
CHO cells (ATCC) stably expressing human V1b receptor were cultured in Ham's F-12 medium (containing 10% FBS and 0.5 mg/mL Geneticin). The cells were seeded the day before the test at 20,000 cells/well in a 96-well poly-D-lysine coated black plate. On the day of the test, the culture medium was removed, and a loading solution (1×HBSS, 10 mmol/L HEPES, 0.1% bovine serum albumin, 1.25 mmol/L Probenecid, 0.02% Pluronic F-127, 1.5 μmol/L Fluo-4-AM, pH 7.4) was added to each well, followed by incubation in a CO2 incubator for 1 hour. After the incubation, the loading solution was removed. A test solution (1×HBSS, 10 mmol/L HEPES, 0.1% bovine serum albumin, 1.25 mmol/L Probenecid, pH 7.4) containing any one of test compounds was added to wells, followed by incubation in a CO2 incubator for 30 minutes. The test compound was serially diluted with DMSO so as to be assayed at a final concentration of 0.1 nmol/L to 1 μmol/L. After the incubation, measurement of fluorescence intensity levels and addition of AVP were performed with Functional Drug Screening System (FDSS, Hamamatsu Photonics K.K.). […] The fluorescence level in the well not containing any test compound and AVP was defined as 0%, and the fluorescence level in the well not containing any test compound but containing AVP was defined as 100%. A dose-response curve was plotted from fluorescence levels after the addition of AVP in the presence of a test compound at various concentrations, and the 50% inhibitory concentration (IC50 value) of the compound was calculated.

Human V1b receptor [2] = target: T1, Human V1b receptor; test: Binding test for V1b receptor ([3H]AVP displacement, crude membrane preparation); set-up: expressed in transfected cells; host or cells: 293FT cells (Invitrogen), transient expression; crude membrane preparation; conditions: [3H]AVP 0.4 to 1 nmol/L; membranes of 293FT cells transiently expressing human V1b receptor; room temperature, 60 minutes
How it was run: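 Crude membranes from 293FT cells transiently expressing human V1b, in 50 mmol/L Tris-HCl pH 7.4 with 10 mmol/L MgCl2 and 0.1% BSA, incubated with compound (0.01 nmol/L–1 μmol/L) and [3H]AVP (0.4–1 nmol/L) for 60 min at room temperature. Filter-bound radioactivity counted; 10 μmol/L unlabeled AVP defined 0%. IC50 from dose-response curve.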

[3] = CHO cells stably expressing human V1b receptor, AVP 2.5 nmol/L, 30 minutes preincubation, read-out: IC50 value (V1b receptor antagonistic activity)

In the case of `CC(C)NC(=O)Cn1c(-c2cccc(Cl)c2)nn(-c2ccc(CCN3CCOCC3)cc2)c1=O` [Aa-1, 2-[3-(3-Chlorophenyl)-1-{4-[2-(morpholin-4-yl)ethyl]phenyl}-5-oxo-1,5-dihydro-4H-1,2,4-triazol-4-yl]-N-(propan-2-yl)acetamide], the IC50 (Human V1b receptor [1]; [3]) is reported as 9.3 nM and the IC50 (Human V1b receptor [2]) is reported as 8.6 nM.
In the case of `COc1cccc(-c2nn(-c3ccc(CCN4CCOCC4)cc3)c(=O)n2CC(=O)NC(C)C)c1` [Ba-2, 2-[3-(3-Methoxyphenyl)-1-{4-[2-(morpholin-4-yl)ethyl]phenyl}-5-oxo-1,5-dihydro-4H-1,2,4-triazol-4-yl]-N-(propan-2-yl)acetamide], the IC50 (Human V1b receptor [1]; [3]) is reported as 30 nM and the IC50 (Human V1b receptor [2]) is reported as 19 nM.
Work on `CC(C)NC(=O)Cn1c(-c2cccc(Cl)c2)nn(-c2ccc(CCN3C4CCC3COC4)cc2)c1=O` [Aa-10, 2-[3-(3-Chlorophenyl)-1-{4-[2-(3-oxa-8-azabicyclo[3.2.1]oct-8-yl)ethyl]phenyl}-5-oxo-1,5-dihydro-4H-1,2,4-triazol-4-yl]-N-(propan-2-yl)acetamide] yielded an IC50 (Human V1b receptor [1]) of 20 nM and an IC50 (Human V1b receptor [2]) of 4.7 nM.
`COc1cc(-c2nn(-c3ccc(CCN4CCOCC4)cc3)c(=O)n2CC(=O)NC(C)C)ccc1F` [Ca-2, 2-[3-(4-Fluoro-3-methoxyphenyl)-1-{4-[2-(morpholin-4-yl)ethyl]phenyl}-5-oxo-1,5-dihydro-4H-1,2,4-triazol-4-yl]-N-(propan-2-yl)acetamide] showed an IC50 (Human V1b receptor [1]; [3]) of 11 nM and an IC50 (Human V1b receptor [2]) of 10 nM.
Work on `CC(C)NC(=O)Cn1c(-c2cccc(Cl)c2)nn(-c2ccc(CCN3C4CCC3COC4)cn2)c1=O` [Ab-5, 2-[3-(3-Chlorophenyl)-1-{5-[2-(3-oxa-8-azabicyclo[3.2.1]oct-8-yl)ethyl]pyridin-2-yl}-5-oxo-1,5-dihydro-4H-1,2,4-triazol-4-yl]-N-(propan-2-yl)acetamide] yielded an IC50 (Human V1b receptor [1]; [3]) of 29 nM and an IC50 (Human V1b receptor [2]) of 8.6 nM.
`O=C(Cn1c(-c2cccc(Cl)c2)nn(-c2ccc(CCN3CCOCC3)cc2)c1=O)NCC1CC1` [Ad-6, 2-[3-(3-Chlorophenyl)-1-{4-[2-(morpholin-4-yl)ethyl]phenyl}-5-oxo-1,5-dihydro-4H-1,2,4-triazol-4-yl]-N-(cyclopropylmethyl)acetamide] gave an IC50 (Human V1b receptor [2]) of 62 nM.
`CC(C)NC(=O)Cn1c(-c2cccc(F)c2)nn(-c2ccc(CCN3CCOCC3)cc2)c1=O` [Fa-1, 2-[3-(3-Fluorophenyl)-1-{4-[2-(morpholin-4-yl)ethyl]phenyl}-5-oxo-1,5-dihydro-4H-1,2,4-triazol-4-yl]-N-(propan-2-yl)acetamide] was tested, and the IC50 (Human V1b receptor [2]) was 46 nM.
Work on `CC(C)NC(=O)Cn1c(-c2ccc(F)c(Cl)c2)nn(-c2ccc(CCN3CC4(COC4)C3)cn2)c1=O` [Db-3, 2-[3-(3-Chloro-4-fluorophenyl)-1-{5-[2-(2-oxa-6-azaspiro[3.3]hept-6-yl)ethyl]pyridin-2-yl}-5-oxo-1,5-dihydro-4H-1,2,4-triazol-4-yl]-N-(propan-2-yl)acetamide] yielded an IC50 (Human V1b receptor [2]) of 10 nM.
For `COc1cc(-c2nn(-c3ccc(CCN4CCC(C)(O)CC4)cc3)c(=O)n2CC(=O)NC(C)C)ccc1F` [Ca-27, 2-[3-(4-Fluoro-3-methoxyphenyl)-1-{4-[2-(4-hydroxy4-methylpiperidin-1-yl)ethyl]phenyl}-5-oxo-1,5-dihydro-4H-1,2,4-triazol-4-yl]-N-(propan-2-yl)acetamide trifluoroacetate], the IC50 (Human V1b receptor [2]) was 100 to 1000 nM.
Work on `COc1cc(-n2nc(-c3cccc(Cl)c3)n(CC(=O)NC(C)C)c2=O)ccc1CCN1CCOCC1` [Ad-9, 2-[3-(3-Chlorophenyl)-1-{3-methoxy-4-[2-(morpholin-4-yl)ethyl]phenyl}-5-oxo-1,5-dihydro-4H-1,2,4-triazol-4-yl]-N-(propan-2-yl)acetamide] yielded an IC50 (Human V1b receptor [2]) of 2.3 nM.
For `CC(C)NC(=O)Cn1c(-c2cccc(Cl)c2)nn(-c2ccc(CCN3CCC(O)C3)cc2)c1=O` (stereo not drawn) [Aa-6, 2-[3-(3-Chlorophenyl)-1-{4-[2-(3-hydroxypyrrolidin-1-yl)ethyl]phenyl}-5-oxo-1,5-dihydro-4H-1,2,4-triazol-4-yl]-N-(propan-2-yl)acetamide], the IC50 (Human V1b receptor [2]) was 56 nM.
`CC(C)NC(=O)Cn1c(-c2cccc(Cl)c2)nn(-c2ccc(CCN3CCC(CO)C3)cc2)c1=O` (stereo not drawn) [Aa-7, 2-[3-(3-Chlorophenyl)-1-(4-{2-[3-(hydroxymethyl)pyrrolidin-1-yl]ethyl}phenyl)-5-oxo-1,5-dihydro-4H-1,2,4-triazol-4-yl]-N-(propan-2-yl)acetamide] gave an IC50 (Human V1b receptor [2]) of 34 nM.
`CC(C)(CO)NC(=O)Cn1c(-c2cccc(Cl)c2)nn(-c2ccc(CCN3CCOCC3)cc2)c1=O` [Ad-3, 2-[3-(3-Chlorophenyl)-1-{4-[2-(morpholin-4-yl)ethyl]phenyl}-5-oxo-1,5-dihydro-4H-1,2,4-triazol-4-yl]-N-(1-hydroxy-2-methylpropan-2-yl)acetamide] showed an IC50 (Human V1b receptor [2]) of 55 nM.
`CC(NC(=O)Cn1c(-c2cccc(Cl)c2)nn(-c2ccc(CCN3CCOCC3)cc2)c1=O)C(F)(F)F` (stereo not drawn) [Ad-2, 2-[3-(3-Chlorophenyl)-1-{4-[2-(morpholin-4-yl)ethyl]phenyl}-5-oxo-1,5-dihydro-4H-1,2,4-triazol-4-yl]-N-(1,1,1-trifluoropropan-2-yl)acetamide] showed an IC50 (Human V1b receptor [2]) of 15 nM.
With `CC(C)NC(=O)Cn1c(-c2ccc(F)c(Cl)c2)nn(-c2ccc(CCN3CCOCC3)cn2)c1=O` [Db-2, 2-[3-(3-Chloro-4-fluorophenyl)-1-{5-[2-(morpholin-4-yl)ethyl]pyridin-2-yl}-5-oxo-1,5-dihydro-4H-1,2,4-triazol-4-yl]-N-(propan-2-yl)acetamide] the IC50 (Human V1b receptor [2]) was 7.1 nM.
Work on `COc1cc(-c2nn(-c3ccc(CCN4C5CCC4COC5)cn3)c(=O)n2CC(=O)NC(C)C)ccc1F` [Cb-5, 2-[3-(4-Fluoro-3-methoxyphenyl)-1-{5-[2-(3-oxa-8-azabicyclo[3.2.1]oct-8-yl)ethyl]pyridin-2-yl}-5-oxo-1,5-dihydro-4H-1,2,4-triazol-4-yl]-N-(propan-2-yl)acetamide] yielded an IC50 (Human V1b receptor [2]) of 16 nM.
`CC(C)(C)NC(=O)Cn1c(-c2cccc(Cl)c2)nn(-c2ccc(CCN3CCOCC3)cn2)c1=O` [Ad-17, N-Tert-Butyl-2-[3-(3-chlorophenyl)-1-{5-[2-(morpholin-4-yl)ethyl]pyridin-2-yl}-5-oxo-1,5-dihydro-4H-1,2,4-triazol-4-yl]acetamide] gave an IC50 (Human V1b receptor [2]) of 3.5 nM.
`CC(C)NC(=O)Cn1c(-c2cccc(Cl)c2)nn(-c2ccc(CCN3C4CCC3COC4)c(F)c2)c1=O` [Ad-8, 2-[3-(3-Chlorophenyl)-1-{3-fluoro-4-[2-(3-oxa-8-azabicyclo[3.2.1]oct-8-yl)ethyl]phenyl}-5-oxo-1,5-dihydro-4H-1,2,4-triazol-4-yl]-N-(propan-2-yl)acetamide] showed an IC50 (Human V1b receptor [2]) of 1.5 nM.
Compound `CC(C)NC(=O)Cn1c(-c2cccc(Cl)c2)nn(-c2ccc(CC(C)N3C4CCC3COC4)cn2)c1=O` (single isomer, unassigned; (-)) [Ad-19-1] has an IC50 (Human V1b receptor [2]) of 0.59 nM.
For `CC(C)NC(=O)Cn1c(-c2ccc(F)c(Cl)c2)nn(-c2ccc(CCN3C4CCC3COC4)cn2)c1=O` [Db-4, 2-[3-(3-Chloro-4-fluorophenyl)-1-{5-[2-(3-oxa-8-azabicyclo[3.2.1]oct-8-yl)ethyl]pyridin-2-yl}-5-oxo-1,5-dihydro-4H-1,2,4-triazol-4-yl]-N-(propan-2-yl)acetamide], the IC50 (Human V1b receptor [2]) was 2.9 nM.
`COc1cc(-c2nn(-c3ncc(CCN4CCOCC4)cn3)c(=O)n2CC(=O)NC(C)C)ccc1F` [Cd-1, 2-[3-(4-Fluoro-3-methoxyphenyl)-1-{5-[2-(morpholin-4-yl)ethyl]pyrimidin-2-yl}-5-oxo-1,5-dihydro-4H-1,2,4-triazol-4-yl]-N-(propan-2-yl)acetamide] was tested, and the IC50 (Human V1b receptor [2]) was 166 nM.
`CC(C)NC(=O)Cn1c(-c2cccc(Cl)c2)nn(-c2ccc(CCN3CCCOCC3)cc2)c1=O` [Aa-13, 2-[3-(3-Chlorophenyl)-1-{4-[2-(1,4-oxazepan-4-yl)ethyl]phenyl}-5-oxo-1,5-dihydro-4H-1,2,4-triazol-4-yl]-N-(propan-2-yl)acetamide] showed an IC50 (Human V1b receptor [2]) of 20 nM.
